Data published in ChEMBL document CHEMBL1134625 (J Med Chem, 2001).

Legend:
D(2) dopamine receptor = D(2) dopamine receptor (Homo sapiens, UniProt P14416)
[1] = target: T1, 5-hydroxytryptamine receptor 2C (Homo sapiens, UniProt P28335)
T1 sequence (P28335 whole entry): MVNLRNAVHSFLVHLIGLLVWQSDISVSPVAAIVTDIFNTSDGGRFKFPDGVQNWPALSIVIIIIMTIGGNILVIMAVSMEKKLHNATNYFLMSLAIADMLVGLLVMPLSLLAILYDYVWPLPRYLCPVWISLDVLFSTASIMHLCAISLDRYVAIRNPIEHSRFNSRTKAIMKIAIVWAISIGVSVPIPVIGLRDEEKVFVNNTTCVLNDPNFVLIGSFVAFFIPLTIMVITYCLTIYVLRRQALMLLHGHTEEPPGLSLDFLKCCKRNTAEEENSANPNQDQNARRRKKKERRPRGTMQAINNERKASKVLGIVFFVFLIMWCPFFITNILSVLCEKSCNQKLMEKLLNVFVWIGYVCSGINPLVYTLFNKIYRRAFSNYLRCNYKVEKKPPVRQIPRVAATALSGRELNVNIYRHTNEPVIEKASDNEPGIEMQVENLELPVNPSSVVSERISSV

Adenosine receptor A3 = target: T2, Adenosine receptor A3 (Homo sapiens, UniProt P0DMS8)
T2 sequence (P0DMS8 whole entry): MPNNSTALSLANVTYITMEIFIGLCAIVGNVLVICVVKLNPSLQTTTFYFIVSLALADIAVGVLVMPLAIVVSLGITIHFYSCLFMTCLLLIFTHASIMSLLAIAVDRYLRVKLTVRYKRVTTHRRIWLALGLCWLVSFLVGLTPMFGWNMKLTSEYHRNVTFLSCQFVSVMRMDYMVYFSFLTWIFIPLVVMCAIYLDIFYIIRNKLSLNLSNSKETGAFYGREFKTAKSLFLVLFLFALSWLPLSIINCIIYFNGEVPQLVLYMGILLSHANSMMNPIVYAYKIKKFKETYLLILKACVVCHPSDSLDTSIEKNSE

[2] = target: Sodium-dependent dopamine transporter (Homo sapiens, UniProt Q01959)
D(3) dopamine receptor = D(3) dopamine receptor (Homo sapiens, UniProt P35462)
Histamine H1 receptor = Histamine H1 receptor (Homo sapiens, UniProt P35367)
Histamine H2 receptor = Histamine H2 receptor (Homo sapiens, UniProt P25021)
D(1B) dopamine receptor = D(1B) dopamine receptor (Homo sapiens, UniProt P21918)
Cannabinoid receptor 1 = Cannabinoid receptor 1 (Homo sapiens, UniProt P21554)
[3] = target: 5-hydroxytryptamine receptor 6 (Homo sapiens, UniProt P50406)
D(4) dopamine receptor = target: T3, D(4) dopamine receptor (Homo sapiens, UniProt P21917)
T3 sequence (P21917 whole entry): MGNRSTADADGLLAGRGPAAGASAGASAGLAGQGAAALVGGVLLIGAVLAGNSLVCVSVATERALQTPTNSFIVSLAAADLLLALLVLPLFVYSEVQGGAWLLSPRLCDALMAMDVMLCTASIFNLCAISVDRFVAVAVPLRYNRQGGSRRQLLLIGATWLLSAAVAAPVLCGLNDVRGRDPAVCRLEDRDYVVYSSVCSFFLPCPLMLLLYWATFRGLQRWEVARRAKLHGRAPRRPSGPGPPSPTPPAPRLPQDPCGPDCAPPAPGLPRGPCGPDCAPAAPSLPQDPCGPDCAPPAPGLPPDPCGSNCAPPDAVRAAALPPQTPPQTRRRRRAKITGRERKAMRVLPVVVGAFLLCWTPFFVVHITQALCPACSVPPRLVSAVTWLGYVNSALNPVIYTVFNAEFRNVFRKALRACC

[4] = target: 5-hydroxytryptamine receptor 2A (Homo sapiens, UniProt P28223)
[5] = target: T4, 5-hydroxytryptamine receptor 1A (Homo sapiens, UniProt P08908)
T4 sequence (P08908 whole entry): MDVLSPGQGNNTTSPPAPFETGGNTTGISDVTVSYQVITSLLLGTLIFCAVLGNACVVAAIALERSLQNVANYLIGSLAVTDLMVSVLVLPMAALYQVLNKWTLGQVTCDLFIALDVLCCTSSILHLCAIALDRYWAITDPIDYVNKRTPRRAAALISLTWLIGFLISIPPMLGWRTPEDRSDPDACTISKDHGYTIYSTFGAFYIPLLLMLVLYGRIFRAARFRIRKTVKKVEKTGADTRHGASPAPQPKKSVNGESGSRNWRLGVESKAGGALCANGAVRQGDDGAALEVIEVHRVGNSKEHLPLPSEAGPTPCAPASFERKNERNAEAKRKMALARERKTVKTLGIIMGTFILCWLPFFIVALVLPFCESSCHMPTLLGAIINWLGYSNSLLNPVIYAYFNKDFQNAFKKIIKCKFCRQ

Sequence of D(1B) dopamine receptor (P21918 whole entry): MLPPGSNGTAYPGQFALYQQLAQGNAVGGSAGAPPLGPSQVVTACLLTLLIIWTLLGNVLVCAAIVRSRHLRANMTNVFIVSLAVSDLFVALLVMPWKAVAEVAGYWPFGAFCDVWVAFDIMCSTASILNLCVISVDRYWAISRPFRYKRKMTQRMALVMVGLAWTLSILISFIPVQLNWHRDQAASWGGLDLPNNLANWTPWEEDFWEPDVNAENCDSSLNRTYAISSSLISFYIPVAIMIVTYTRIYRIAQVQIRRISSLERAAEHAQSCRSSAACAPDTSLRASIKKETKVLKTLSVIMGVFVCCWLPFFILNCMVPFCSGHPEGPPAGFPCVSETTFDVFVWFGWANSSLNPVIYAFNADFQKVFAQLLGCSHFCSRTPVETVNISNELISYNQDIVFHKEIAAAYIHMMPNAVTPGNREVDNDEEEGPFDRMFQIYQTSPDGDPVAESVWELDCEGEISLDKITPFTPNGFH
Sequence of D(3) dopamine receptor (P35462 whole entry): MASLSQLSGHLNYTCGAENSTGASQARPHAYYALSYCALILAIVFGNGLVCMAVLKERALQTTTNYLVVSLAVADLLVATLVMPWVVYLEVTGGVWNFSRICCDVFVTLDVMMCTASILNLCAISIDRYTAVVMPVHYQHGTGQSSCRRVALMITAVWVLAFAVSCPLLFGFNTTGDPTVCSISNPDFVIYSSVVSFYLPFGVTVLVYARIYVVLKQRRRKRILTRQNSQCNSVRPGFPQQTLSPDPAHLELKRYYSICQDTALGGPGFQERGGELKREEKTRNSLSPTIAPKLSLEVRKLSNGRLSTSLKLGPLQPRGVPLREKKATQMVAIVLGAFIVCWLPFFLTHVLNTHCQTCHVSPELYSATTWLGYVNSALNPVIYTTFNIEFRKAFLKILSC
Sequence of Cannabinoid receptor 1 (P21554 whole entry): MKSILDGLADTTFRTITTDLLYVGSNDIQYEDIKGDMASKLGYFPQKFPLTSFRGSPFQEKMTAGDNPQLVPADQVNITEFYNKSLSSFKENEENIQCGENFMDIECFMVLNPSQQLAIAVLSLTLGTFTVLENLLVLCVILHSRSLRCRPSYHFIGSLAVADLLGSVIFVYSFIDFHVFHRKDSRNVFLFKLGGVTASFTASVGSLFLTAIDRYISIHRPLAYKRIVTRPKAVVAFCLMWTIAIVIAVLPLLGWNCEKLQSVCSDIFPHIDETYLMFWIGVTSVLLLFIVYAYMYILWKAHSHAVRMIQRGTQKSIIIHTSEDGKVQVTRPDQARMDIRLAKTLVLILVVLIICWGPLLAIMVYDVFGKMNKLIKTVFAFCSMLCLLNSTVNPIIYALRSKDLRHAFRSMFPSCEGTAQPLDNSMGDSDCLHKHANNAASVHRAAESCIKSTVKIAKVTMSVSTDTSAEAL
Sequence of Histamine H1 receptor (P35367 whole entry): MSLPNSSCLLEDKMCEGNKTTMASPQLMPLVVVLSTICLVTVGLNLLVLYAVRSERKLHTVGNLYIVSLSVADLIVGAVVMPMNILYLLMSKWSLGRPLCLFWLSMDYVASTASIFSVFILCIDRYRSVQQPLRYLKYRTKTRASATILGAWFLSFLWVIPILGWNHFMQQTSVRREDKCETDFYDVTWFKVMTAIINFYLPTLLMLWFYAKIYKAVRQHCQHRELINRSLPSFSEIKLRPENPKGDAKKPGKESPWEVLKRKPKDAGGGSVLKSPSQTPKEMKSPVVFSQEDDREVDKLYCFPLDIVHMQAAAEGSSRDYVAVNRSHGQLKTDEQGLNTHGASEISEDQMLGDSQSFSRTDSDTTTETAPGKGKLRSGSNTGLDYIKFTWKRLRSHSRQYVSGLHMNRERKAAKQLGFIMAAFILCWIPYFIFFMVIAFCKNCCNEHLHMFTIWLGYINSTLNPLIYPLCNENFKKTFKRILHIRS
Sequence of Histamine H2 receptor (P25021 whole entry): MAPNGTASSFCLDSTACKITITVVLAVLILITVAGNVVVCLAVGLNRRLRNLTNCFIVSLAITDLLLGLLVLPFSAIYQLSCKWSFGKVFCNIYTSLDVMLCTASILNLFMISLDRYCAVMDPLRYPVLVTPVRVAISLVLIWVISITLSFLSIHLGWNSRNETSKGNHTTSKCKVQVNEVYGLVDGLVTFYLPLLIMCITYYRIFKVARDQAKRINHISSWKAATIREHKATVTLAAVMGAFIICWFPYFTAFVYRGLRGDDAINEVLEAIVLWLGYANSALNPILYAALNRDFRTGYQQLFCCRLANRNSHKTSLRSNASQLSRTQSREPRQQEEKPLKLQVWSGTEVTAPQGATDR
Sequence of D(2) dopamine receptor (P14416 whole entry): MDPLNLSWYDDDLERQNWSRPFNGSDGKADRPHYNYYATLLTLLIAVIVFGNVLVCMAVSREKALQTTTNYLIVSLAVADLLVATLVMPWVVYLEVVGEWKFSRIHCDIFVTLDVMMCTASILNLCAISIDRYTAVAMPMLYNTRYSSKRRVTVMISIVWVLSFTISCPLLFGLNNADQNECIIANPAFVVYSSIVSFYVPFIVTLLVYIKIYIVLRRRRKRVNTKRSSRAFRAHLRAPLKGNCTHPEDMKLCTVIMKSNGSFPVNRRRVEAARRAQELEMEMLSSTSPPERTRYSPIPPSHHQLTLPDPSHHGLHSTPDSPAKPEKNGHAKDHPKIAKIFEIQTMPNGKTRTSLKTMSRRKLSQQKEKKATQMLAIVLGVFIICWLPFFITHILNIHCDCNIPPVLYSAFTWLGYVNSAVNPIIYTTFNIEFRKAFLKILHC
Sequence of Sodium-dependent dopamine transporter (Q01959 whole entry): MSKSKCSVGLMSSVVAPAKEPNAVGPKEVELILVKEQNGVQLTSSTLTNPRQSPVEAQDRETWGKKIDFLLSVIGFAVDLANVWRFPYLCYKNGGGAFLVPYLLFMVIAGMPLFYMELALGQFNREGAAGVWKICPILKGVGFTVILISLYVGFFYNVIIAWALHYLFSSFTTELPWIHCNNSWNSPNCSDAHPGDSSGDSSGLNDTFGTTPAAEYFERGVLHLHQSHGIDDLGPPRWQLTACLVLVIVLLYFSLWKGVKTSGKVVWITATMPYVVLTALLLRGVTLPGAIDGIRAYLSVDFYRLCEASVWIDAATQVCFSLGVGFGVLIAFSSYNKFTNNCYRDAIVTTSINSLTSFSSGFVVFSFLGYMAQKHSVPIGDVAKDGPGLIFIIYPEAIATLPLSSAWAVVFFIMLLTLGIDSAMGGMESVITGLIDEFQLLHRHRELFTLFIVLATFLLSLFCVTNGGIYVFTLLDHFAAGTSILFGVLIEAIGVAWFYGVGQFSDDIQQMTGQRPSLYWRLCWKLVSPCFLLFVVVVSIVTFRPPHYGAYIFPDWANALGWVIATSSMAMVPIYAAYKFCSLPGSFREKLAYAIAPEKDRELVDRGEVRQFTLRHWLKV
Sequence of 5-hydroxytryptamine receptor 2A (P28223 whole entry): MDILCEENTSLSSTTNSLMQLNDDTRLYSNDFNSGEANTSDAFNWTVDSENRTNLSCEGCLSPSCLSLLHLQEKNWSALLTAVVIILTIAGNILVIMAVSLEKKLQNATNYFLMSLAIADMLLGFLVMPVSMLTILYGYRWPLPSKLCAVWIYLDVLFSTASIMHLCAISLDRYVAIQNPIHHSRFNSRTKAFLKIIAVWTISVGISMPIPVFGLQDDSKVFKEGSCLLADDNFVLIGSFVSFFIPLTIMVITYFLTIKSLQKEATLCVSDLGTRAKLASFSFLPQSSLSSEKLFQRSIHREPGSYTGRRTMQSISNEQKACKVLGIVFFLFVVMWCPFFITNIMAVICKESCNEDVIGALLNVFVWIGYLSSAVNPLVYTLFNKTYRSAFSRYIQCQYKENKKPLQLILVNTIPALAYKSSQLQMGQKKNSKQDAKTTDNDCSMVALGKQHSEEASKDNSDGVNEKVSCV
Sequence of 5-hydroxytryptamine receptor 6 (P50406 whole entry): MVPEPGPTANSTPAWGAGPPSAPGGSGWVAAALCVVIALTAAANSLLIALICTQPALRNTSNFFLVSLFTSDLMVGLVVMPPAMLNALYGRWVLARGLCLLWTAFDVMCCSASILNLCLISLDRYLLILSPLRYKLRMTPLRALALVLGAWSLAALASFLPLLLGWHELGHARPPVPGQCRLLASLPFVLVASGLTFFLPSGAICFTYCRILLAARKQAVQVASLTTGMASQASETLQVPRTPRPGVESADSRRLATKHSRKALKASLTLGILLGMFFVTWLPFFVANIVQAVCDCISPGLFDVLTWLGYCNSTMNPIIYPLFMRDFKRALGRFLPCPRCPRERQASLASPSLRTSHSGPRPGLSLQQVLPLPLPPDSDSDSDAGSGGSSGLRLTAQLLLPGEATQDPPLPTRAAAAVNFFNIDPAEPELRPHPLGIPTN

Compound: N#Cc1ccc(CCOC(=O)NC2CCN(CCCC(c3ccc(F)cc3)c3ccc(F)cc3)CC2)cc1
- IC50 (D(2) dopamine receptor): 551 nM
- IC50 [1]: 2760 nM
- IC50 (Adenosine receptor A3): 5980 nM
- IC50 [2]: 781 nM
- IC50 (D(3) dopamine receptor): 538 nM
- IC50 (Histamine H1 receptor): 454 nM
- IC50 (Histamine H2 receptor): 368 nM
- IC50 (D(1B) dopamine receptor): 513 nM
- IC50 (Cannabinoid receptor 1): 6090 nM
- IC50 [3]: 427 nM
- IC50 (D(4) dopamine receptor): 543 nM
- IC50 [4]: 683 nM
- IC50 [5]: 985 nM
